According to US6620828B2, “Thiazole compounds and pharmaceutical compositions for inhibiting protein kinases and methods for their use” (Agouron Pharmaceuticals, Inc., priority 1999, dated 2003):

Experiments:
FL-CHK1 = molecular target: T1, FL-CHK1 (Homo sapiens, UniProt O14757); experiment: CHK1 assay; type: biochemical; set-up: CHK1^b: unit not given here; conditions: Table A combinatorial examples; footnote b not given
T1 construct: C-terminally His-tagged full-length human CHK1 (FL-CHK1); 6xHis (C); made in house; host or cells: baculovirus/insect cells
T1 sequence (O14757 1-476): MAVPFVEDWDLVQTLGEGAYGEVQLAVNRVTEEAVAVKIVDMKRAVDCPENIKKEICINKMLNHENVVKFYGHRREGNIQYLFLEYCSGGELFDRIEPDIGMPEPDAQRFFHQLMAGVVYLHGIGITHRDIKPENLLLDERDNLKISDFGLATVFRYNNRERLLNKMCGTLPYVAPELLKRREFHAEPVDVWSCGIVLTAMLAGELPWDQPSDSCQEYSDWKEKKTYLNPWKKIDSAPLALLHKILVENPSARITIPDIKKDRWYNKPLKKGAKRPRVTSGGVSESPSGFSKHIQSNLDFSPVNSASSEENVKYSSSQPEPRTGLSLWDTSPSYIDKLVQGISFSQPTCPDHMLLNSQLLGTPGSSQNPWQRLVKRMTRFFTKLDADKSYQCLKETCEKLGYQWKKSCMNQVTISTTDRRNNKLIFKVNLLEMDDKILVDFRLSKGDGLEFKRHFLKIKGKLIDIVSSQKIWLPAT
Text: CHK-1 Construct for Assay: C-terminally His-tagged full-length human CHK1 (FL-CHK1) was expressed using the baculovirus/insect cell system. It contains 6 histidine residues (6×His-tag) at the C-terminus of the 476 amino acid human CHK1. The protein was purified by conventional chromatographic techniques.
The production of ADP from ATP that accompanies phosphoryl transfer to the synthetic substrate peptide Syntide-2 ([…]) was coupled to oxidation of NADH using phosphoenolpyruvate (PEP) through the actions of pyruvate kinase (PK) and lactic dehydrogenase (LDH). The oxidation of NADH was monitored by following the decrease of absorbance at 340 nm (ε340=6.22 cm^−1 mM^−1) using a HP8452 spectrophotometer. Typical reaction solutions contained: […]; 0.15 mM NADH; 28 units of LDH/ml; 16 units of PK/ml; 3 mM DTT; 0.125 mM Syntide-2; 0.15 mM ATP; 25 mM MgCl2 in 50 mM TRIS, pH 7.5; and 400 mM NaCl. Assays were initiated with 10 nM of FL-CHK1. Ki values were determined by measuring initial enzyme activity in the presence of varying concentrations of test compounds. The data were analyzed using Enzyme Kinetic and Kaleidagraph software.

CDK2/Cyclin A complex = CDK2/Cyclin A complex (Homo sapiens, UniProt P24941); experiment: CDK2/Cyclin A assay; type: biochemical; set-up: CDK2^c: concentration or dose not given beside the values; conditions: Table A combinatorial examples; footnote c not given
Text: CDK2/Cyclin A Construct for Assay: CDK2 was purified using published methodology (Rosenblatt et al., J. Mol. Biol., 230, 1317-1319 (1993)) from insect cells that had been infected with a baculovirus expression vector. Cyclin A was purified from E. coli cells expressing full-length recombinant cyclin A, and a truncated cyclin A construct was generated by limited proteolysis and purified as described previously (Jeffrey et al., Nature, 376, 313-320 (Jul. 27, 1995)).
CDK2/Cyclin A and CDK4/Cyclin D Assays
Cyclin-dependent kinase activity was measured by quantifying the enzyme-catalyzed, time-dependent incorporation of radioactive phosphate from [^32P]ATP into a recombinant fragment of the retinoblastoma protein. Unless noted otherwise, assays were performed in 96-well plates in a total volume of 50 μL, in the presence of 10 mM HEPES (N-[2-hydroxyethyl]piperazine-N′-[2-ethanesulfonic acid]) (pH 7.4), 10 mM MgCl2, 25 μM adenosine triphosphate (ATP), 1 mg/mL ovalbumin, 5 μg/mL leupeptin, 1 mM dithiothreitol, 10 mM β-glycerophosphate, 0.1 mM sodium vanadate, 1 mM sodium fluoride, 2.5 mM ethylene glycol-bis(β-aminoethyl ether)-N,N,N′N′-tetraacetic acid (EGTA), 2% (v/v) dimethylsulfoxide, and 0.03-0.2 μCi [^32P]ATP. The substrate (0.3-0.5 μg) was purified recombinant retinoblastoma protein fragment (Rb) (residues 386-928 of the native retinoblastoma protein; 62.3 kDa, containing the majority of the phosphorylation sites found in the native 106-kDa protein, as well as a tag of six histidine residues for ease of purification). Reactions were initiated with CDK2 (150 nM CDK2/Cyclin A complex) or CDK4 (50 nM CDK4/Cyclin D3 complex), incubated at 30° C., and terminated after 20 minutes by the addition of ethylenediaminetetraacetic acid EDTA) to 250 mM. The phosphorylated substrate was then captured on a nitrocellulose membrane using a 96-well filtration manifold, and unincorporated radioactivity was removed by repeated washing with 0.85% phosphoric acid. Radioactivity was quantified by exposing the dried nitrocellulose membranes to a phosphorimager. Apparent Ki values were measured by assaying enzyme activity in the presence of different compound concentrations and subtracting the background radioactivity measured in the absence of enzyme. The kinetic parameters (kcat, Km for ATP) were measured for each enzyme under the usual assay conditions by determining the dependence of initial rates on ATP concentration. The data were fit to an equation for competitive inhibition using Kaleidagraph (Synergy Software), or were fit to an equation for competitive tight-binding inhibition using the software KineTic (BioKin, Ltd.). Measured Ki values for known inhibitors against CDK4 and CDK2 agreed with published IC50 values. The specific activity of CDK4 was the same whether complexed to full-length cyclin D3 or the truncated Cyclin D3 construct; both complexes also yielded very similar Ki values for selected inhibitors.

Row | SMILES | CHK1^b (FL-CHK1) | CDK2^c (CDK2/Cyclin A complex)
1 | COc1cc(Nc2nc(N)c(-c3nc(-c4ccc5ccccc5c4)cs3)s2)cc2c1OCCO2 | 9.2 | 11.6
2 | COc1cc(Nc2nc(N)c(-c3nc(-c4cc(C)sc4C)cs3)s2)cc(OC)c1OC | 46.3 | 7.3
3 | COc1cc(Nc2nc(N)c(-c3nc(-c4ccc(-c5ccc(Cl)cc5Cl)o4)cs3)s2)cc(OC)c1OC | 23 | 12.4
4 | COc1ccccc1-c1csc(-c2sc(Nc3cc(OC)c(OC)c(OC)c3)nc2N)n1 | 20 | −3.5
5 | COc1cc(Nc2nc(N)c(-c3nc(-c4ccc(C)cc4)cs3)s2)cc(OC)c1OC | 3.7 | −2.1
6 | COc1ccc(-c2csc(-c3sc(Nc4cc(OC)c(OC)c(OC)c4)nc3N)n2)c(OC)c1 | 9.9 | 4.9
7 | COc1cc(Nc2nc(N)c(-c3nc(-c4ccc(Cl)cc4)cs3)s2)cc(OC)c1OC | 11.2 | 0.1
8 | COc1ccc(OC)c(-c2csc(-c3sc(Nc4cc(OC)c(OC)c(OC)c4)nc3N)n2)c1 | 6.1 | 12.2
9 | CCOC(=O)c1cc(-c2csc(-c3sc(Nc4cc(OC)c(OC)c(OC)c4)nc3N)n2)on1 | 2.7 | 23.2
10 | COc1cc(Nc2nc(N)c(-c3nc(-c4ccccc4[N+](=O)O)cs3)s2)cc(OC)c1OC | 36.6 | 1.9
11 | COc1cc(Nc2nc(N)c(-c3nc(-c4ccc([N+](=O)[O-])cc4)cs3)s2)cc(OC)c1OC | 15.2 | −14.4
12 | COc1cc(Nc2nc(N)c(-c3nc(-c4ccc(Cl)c(C)c4)cs3)s2)cc(OC)c1OC | 11.7 | −4.4
13 | COc1cc(Nc2nc(N)c(-c3nc(-c4ccc(-c5ccccc5)cc4)cs3)s2)cc(OC)c1OC | 18.7 | 20.4
14 | COc1cc(Nc2nc(N)c(-c3nc(-c4ccc(C#N)cc4)cs3)s2)cc(OC)c1OC | 10.3 | 15.6
15 | COc1cc(Nc2nc(N)c(-c3nc(-c4ccc(Cl)cc4Cl)cs3)s2)cc(OC)c1OC | 31.3 | 3.8
16 | COc1cc(Nc2nc(N)c(-c3nc(-c4c(-c5ccccc5)noc4C)cs3)s2)cc(OC)c1OC | 17.9 | 13.6
17 | COc1cc(Nc2nc(N)c(-c3nc(-c4ccc5c(c4)OCCO5)cs3)s2)cc2c1OCCO2 | 32.9 | 5.4
18 | COc1cc(Nc2nc(N)c(-c3nc(-c4ccc(F)cc4)cs3)s2)cc(OC)c1OC | 48.3 | 35
19 | COc1cc(Nc2nc(N)c(-c3nc(-c4ccc(OC(=O)c5ccccc5)cc4)cs3)s2)cc(OC)c1OC | 22.3 | 14.6
20 | COc1cc(Nc2nc(N)c(-c3nc(-c4ccc[nH]4)cs3)s2)cc(OC)c1OC | 31.3 | 14.3
21 | COc1cc(Nc2nc(N)c(-c3nc(-c4ccc(F)c(F)c4)cs3)s2)cc(OC)c1OC | 16.5 | −5
22 | COc1cc(Nc2nc(N)c(-c3nc(-c4cccc([N+](=O)[O-])c4)cs3)s2)cc(OC)c1OC | 8.8 | 6.6

Row | SMILES | CHK1^b (FL-CHK1) | CDK2^c (CDK2/Cyclin A complex)
23 | COc1cc(Nc2nc(N)c(-c3nc(-c4ccc(Cl)c(Cl)c4)cs3)s2)cc(OC)c1OC | 12.1 | 7.3
24 | COc1cc(Nc2nc(N)c(-c3nc(-c4cc(C)c(O)c(C)c4)cs3)s2)cc(OC)c1OC | 27.9 | 28.4
25 | COc1cc(Nc2nc(N)c(-c3nc(-c4c(Cl)c(Cl)nc(Cl)c4Cl)cs3)s2)cc(OC)c1OC | 48.8 | 10.3
26 | COc1cc(Nc2nc(N)c(-c3nc(-c4ccc(C)cc4C)cs3)s2)cc(OC)c1OC | 12 | −1.2
27 | COc1cc(Nc2nc(N)c(-c3nc(-c4ccc(CC(=O)O)s4)cs3)s2)cc(OC)c1OC | 41.9 | 26.7
28 | COc1cc(Nc2nc(N)c(-c3nc(-c4cccc(OC(=O)c5ccccc5)c4)cs3)s2)cc(OC)c1OC | 23.9 | −12.3
29 | COc1cc(OC)c(-c2csc(-c3sc(Nc4cc(OC)c(OC)c(OC)c4)nc3N)n2)c(O)c1Cl | 56 | 11.8
30 | COc1cc(Nc2nc(N)c(-c3nc(-c4ccc5oc6ccccc6c5c4)cs3)s2)cc2c1OCCO2 | 34.1 | 19
31 | COc1cc(Nc2nc(N)c(-c3nc(-c4ccc5c(c4)C(C)(C)CCC5(C)C)cs3)s2)cc2c1OCCO2 | 22.4 | 4.2
32 | COc1cc(Nc2nc(N)c(-c3nc(-c4ccc(C(F)(F)F)cc4)cs3)s2)cc(OC)c1OC | 8.5 | 13.9
33 | COc1cc(Nc2nc(N)c(-c3nc(-c4ccc5c(c4)CCC(=O)N5)cs3)s2)cc2c1OCCO2 | 31.9 | −7.8
34 | COc1cc(Nc2nc(N)c(-c3nc(-c4ccccc4OC(=O)c4ccccc4)cs3)s2)cc(OC)c1OC | 0.5 | 4.6
35 | CCc1cc2c(cc1-c1csc(-c3sc(Nc4cc(OC)c5c(c4)OCCO5)nc3N)n1)C(C)(C)CCC2(C)C | 10.4 | 13.8
36 | COc1ccc2nc(-c3ccccc3)cc(-c3csc(-c4sc(Nc5cc(OC)c(OC)c(OC)c5)nc4N)n3)c2c1 | 21.6 | −2.7
37 | COc1cc(Nc2nc(N)c(-c3nc(-c4sc5ccccc5c4C)cs3)s2)cc2c1OCCO2 | 4.7 | 23.1
38 | COc1cc(Nc2nc(N)c(-c3nc(-c4cc(C(C)(C)C)c(O)c(C(C)(C)C)c4)cs3)s2)cc(OC)c1OC | 25.3 | 5.3
39 | COc1cc(Nc2nc(N)c(-c3nc(-c4cccc(Br)c4)cs3)s2)cc(OC)c1OC | 13.5 | 15.6
40 | COc1cc(Nc2nc(N)c(-c3nc(-c4ccc(O)c(O)c4)cs3)s2)cc(OC)c1OC [drawing 325] | 47.7 | −10.3
41 | COc1ccc(-c2csc(-c3sc(Nc4cc(OC)c(OC)c(OC)c4)nc3N)n2)cc1 [drawing 336] | 15.3 | −13
42 | COc1cc(Nc2nc(N)c(-c3nc(-c4ccc(O)cc4)cs3)s2)cc(OC)c1OC [drawing 352] | 48.3 | 3
43 | COc1cc(Nc2nc(N)c(-c3nc(-c4ccccc4)cs3)s2)cc(OC)c1OC [drawing 358] | 21.1 | −0.2
44 | COc1cc(Nc2nc(N)c(-c3nc(-c4sc5ccc(Cl)cc5c4C)cs3)s2)cc2c1OCCO2 [drawing 361] | 48.7 | 7.3
